Experimental data reported in ChEMBL document CHEMBL1159177, “Novel A-ring cleaved analogs of oleanolic and ursolic acids which affect growth regulation in NRP.152 prostate cells” (Bioorg Med Chem Lett, 1997).

Experiment: In vitro inhibitory concentration against cell proliferation of nonmalignant, nontumerigenic prostate cells (NRP.152)
Type: functional, cell-based
Conditions: Rattus norvegicus

SMILES	IC50
C=C(C)[C@@H]1CC[C@]2(C)[C@H](CC=C3C4CC(C)(C)CC[C@]4(C(=O)O)CC[C@]32C)[C@@]1(C)CCC(=O)O (some centres not stated)	> 5 µM
C[C@@H]1CC[C@]2(C(=O)O)CC[C@]3(C)C(=CC[C@@H]4[C@@]5(C)CC[C@H](O)C(C)(C)[C@@H]5CC[C@]43C)C2[C@H]1C (some centres not stated)	> 5 µM
C=C(C)[C@@H]1CC[C@]2(C)[C@H](CC=C3C4[C@@H](C)[C@H](C)CC[C@]4(C(=O)O)CC[C@]32C)[C@@]1(C)CCC#N (some centres not stated)	> 5 µM
CC(C)[C@@H]1CC[C@]2(C)[C@H](CC=C3C4CC(C)(C)CC[C@]4(C(=O)O)CC[C@]32C)[C@@]1(C)CCCN (some centres not stated)	0.7 µM
C=C(C)[C@@H]1CC[C@]2(C)[C@H](CC=C3C4CC(C)(C)CC[C@]4(C(=O)O)CC[C@]32C)[C@@]1(C)CCC=O (some centres not stated)	1.5 µM
C=C(C)[C@@H]1CC[C@]2(C)[C@H](CC=C3C4CC(C)(C)CC[C@]4(C(=O)O)CC[C@]32C)[C@@]1(C)CCC#N (some centres not stated)	3.8 µM
CC(C)[C@@H]1CC[C@]2(C)[C@H](CC=C3C4[C@@H](C)[C@H](C)CC[C@]4(C(=O)O)CC[C@]32C)[C@@]1(C)CCCN (some centres not stated)	0.3 µM
C[C@@H]1CC[C@]2(C(=O)O)CC[C@]3(C)C(=CC[C@@H]4[C@@]5(C)CCC(=O)C(C)(C)[C@@H]5CC[C@]43C)C2[C@H]1C (some centres not stated)	> 5 µM
C=C(C)[C@@H]1CC[C@]2(C)[C@H](CC=C3C4[C@@H](C)[C@H](C)CC[C@]4(C(=O)O)CC[C@]32C)[C@@]1(C)CCC(=O)O (some centres not stated)	> 5 µM
C=C(C)[C@@H]1CC[C@]2(C)[C@H](CC=C3C4[C@@H](C)[C@H](C)CC[C@]4(C(=O)O)CC[C@]32C)[C@@]1(C)CCC=O (some centres not stated)	2.4 µM
CC1(C)CC[C@]2(C(=O)O)CC[C@]3(C)C(=CC[C@@H]4[C@@]5(C)CC[C@H](O)C(C)(C)[C@@H]5CC[C@]43C)[C@@H]2C1 [OLEANOLIC_ACID]	> 5 µM
CC1(C)CC[C@]2(C(=O)O)CC[C@]3(C)C(=CC[C@@H]4[C@@]5(C)CCC(=O)C(C)(C)[C@@H]5CC[C@]43C)[C@@H]2C1 [OLEANONIC ACID]	> 5 µM
